ChEMBL document CHEMBL3421554, “Discovery of HCV NS5B thumb site I inhibitors: core-refining from benzimidazole to indole scaffold” (Eur J Med Chem, 2015)
≈ marks a conversion by molar mass, not a printed value. One block for each molecule: values may come before it.

What was measured:
[1] = Inhibition of N-terminal hexa-histidine tagged full-length HCV genotype 1b NS5B expressed in baculovirus-infected cells using 5'-biotinylated oligo(rU12), poly(rA) as template-primer assessed as incorporation of [3H]-UTP after 90 mins by Scintillation Proximity Assay; design: species or system Hepatitis C virus subtype 1b
Hepatitis C virus [2] = assay: Antiviral activity against HCV genotype 1b Con1 infected in human HuH7 cells assessed as inhibition of viral replication; assay type: functional, cell-based, Hepacivirus hominis; details: genotype 1b Con1, Huh-7
Genome polyprotein = Genome polyprotein (Hepatitis C virus genotype 1b (isolate BK) (HCV), UniProt P26663); assay: Inhibition of HCV genotype 1b BK NS5B expressed in Escherichia coli BL21 (DE3) after 1 hr
[3] = Inhibition of N-terminally tagged full-length HCV NS5B using biotinylated oligo(rU12), poly(rA) as template-primer assessed as incorporation of [3H]-UTP after 90 mins by Scintillation Proximity Assay; design: species or system Hepacivirus hominis
[4] = Inhibition of N-terminal hexa-histidine tagged HCV NS5B expressed in baculovirus infected insect cells using 12 nucleotide RNA oligo-uridylate primer and complementary poly-adenylate template assessed as incorporation of UMP-[5,6-3H] into the chain elongated from oligo-U primer by TopCount analysis; design: species or system Hepacivirus hominis
Hepatitis C virus [5] = assay: Antiviral activity against HCV infected in human HuH7 cells assessed as inhibition of viral replication after 72 hrs by RT-PCR analysis; assay type: functional, organism-based, Hepacivirus hominis; details: Huh-7, 72 h
Hepatitis C virus [6] = assay: Antiviral activity against HCV assessed as inhibition of viral replication by cell-based assay; assay type: functional, organism-based, Hepacivirus hominis
[7] = Solubility of the compound in phosphate buffer at pH 7.2; assay type: physicochemical
[8] = Octanol-buffer distribution co-efficient, log D of the compound at pH 7.4 by shaking-flask method; assay type: physicochemical

Chain of Genome polyprotein (P26663 2420-3010 limits assumed): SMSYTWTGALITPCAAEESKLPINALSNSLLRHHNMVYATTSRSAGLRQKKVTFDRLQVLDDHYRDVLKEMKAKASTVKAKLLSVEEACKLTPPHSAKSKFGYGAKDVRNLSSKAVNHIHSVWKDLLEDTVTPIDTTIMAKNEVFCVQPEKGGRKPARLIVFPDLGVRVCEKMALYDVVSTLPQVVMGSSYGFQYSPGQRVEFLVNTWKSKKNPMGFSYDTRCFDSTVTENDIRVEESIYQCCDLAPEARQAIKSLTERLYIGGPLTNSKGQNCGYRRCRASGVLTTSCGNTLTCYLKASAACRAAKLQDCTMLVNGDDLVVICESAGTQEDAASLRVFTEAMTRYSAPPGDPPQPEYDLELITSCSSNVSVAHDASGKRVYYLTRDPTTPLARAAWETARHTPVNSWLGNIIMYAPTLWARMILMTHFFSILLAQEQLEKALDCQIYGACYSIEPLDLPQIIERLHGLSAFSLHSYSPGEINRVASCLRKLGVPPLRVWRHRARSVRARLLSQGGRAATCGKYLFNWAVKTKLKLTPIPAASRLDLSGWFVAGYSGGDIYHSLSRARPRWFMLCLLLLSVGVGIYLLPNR

IC50 [1]: 40 nM
Compound: CC(C)(NC(=O)c1ccc2c(c1)nc(-c1ccoc1)n2C1CCCCC1)C(=O)Nc1ccc(/C=C/C(=O)O)cc1

EC50 (Hepatitis C virus [2]): 150 nM
IC50 (Genome polyprotein): 19 nM
Compound: CC(C)N1CC[C@@H](N2CCn3c(c(C4CCCCC4)c4sc(C(=O)O)cc43)-c3ccccc3C2)C1

IC50 [3]: 27 nM
Compound: O=C(O)COc1ccc2[nH]cc(C[C@H](NC(=O)c3ccc4c(c3)nc(-c3ccoc3)n4C3CCCCC3)C(=O)O)c2c1

Compound: O=C(O)c1ccc2c(c1)nc(-c1ccoc1)n2C1CCCCC1
IC50 [4]: 1600 nM

Compound: COc1ccc(CCNC(=O)c2ccc3c(c2)nc(-c2ccccn2)n3C2CCCCC2)cc1OC
IC50 [4]: 12000 nM

EC50 (Hepatitis C virus [2]): 130 nM
IC50 (Genome polyprotein): 10 nM
Compound: CC(C)N1CCC(N(C)C(=O)Cn2c(-c3ccccc3)c(C3CCCCC3)c3sc(C(=O)O)cc32)C1 (centres undefined)

EC50 (Hepatitis C virus [2]): 510 nM
IC50 (Genome polyprotein): 11 nM
Compound: CC(C)CNCc1c(C(=O)O)sc2c(C3CCCCC3)c(-c3ccccc3)n(CC(=O)N(C)C3CCN(C(C)C)C3)c12 (centres undefined)

IC50 (Genome polyprotein): 58 nM
Compound: CN(C)C(=O)Cn1c(-c2ccccc2)c(C2CCCCC2)c2sc(C(=O)O)cc21

IC50 [3]: 300 nM
EC50 (Hepatitis C virus [5]): 1700 nM
Compound: O=C(N[C@H](Cc1c[nH]c2ccc(O)cc12)c1cscn1)c1ccc2c(c1)nc(-c1ccoc1)n2C1CCCCC1

EC50 (Hepatitis C virus [6]): 550 nM
Compound: O=C(O)/C=C/c1ccc(NC(=O)C2(NC(=O)c3ccc4c(c3)nc(-c3ccoc3)n4C3CCCCC3)CCCC2)cc1

EC50 (Hepatitis C virus [6]): 800 nM
Compound: O=C(O)c1ccc2c(C3CCCCC3)c(-c3ccccc3)n(CC(=O)N3CCOCC3)c2c1

IC50 [3]: 130 nM
solubility [7]: 171 µM (≈ 90 µg/mL)
logD [8]: 2.2
EC50 (Hepatitis C virus [5]): 6900 nM
Compound: C[C@@H](NC(=O)c1ccc2c(c1)nc(-c1ccoc1)n2C1CCCCC1)C(=O)Nc1ccc(/C=C/C(=O)O)cc1
